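GI50: concentration for 50% inhibition of growth. TGI marks complete inhibition of growth.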
What was measured:
Assay in all cases: NCI anticancer screen, dose series, 384-well format
CCRF-CEM leukemia = system: CCRF-CEM leukemia
HOP-62 NSCLC = system: HOP-62 NSCLC
KM12 colon = system: KM12 colon
M14 melanoma = system: M14 melanoma
MOLT-4 leukemia = system: MOLT-4 leukemia
NCI-H226 lung = system: NCI-H226 lung
NCI-H23 lung = system: NCI-H23 lung
NCI-H460 NSCLC = system: NCI-H460 NSCLC
RPMI-8226 leukemia = system: RPMI-8226 leukemia
SF-268 CNS = system: SF-268 CNS
SK-MEL-28 melanoma = system: SK-MEL-28 melanoma
SK-OV-3 ovarian = system: SK-OV-3 ovarian
SW-620 colon = system: SW-620 colon

In the case of COc1ccc([C@@H](O)c2cc(-c3ncnc4cc(N5CCOCC5)ccc34)c(F)cc2Cl)nn1, the GI50 (CCRF-CEM leukemia) is reported as 2.2 µM, the TGI (CCRF-CEM leukemia) is reported as 7 µM and the GI50 (HOP-62 NSCLC) is reported as 4.86 µM. The TGI (HOP-62 NSCLC) was 26 µM, the GI50 (KM12 colon) was 5.81 µM and the TGI (KM12 colon) was 19 µM. It also gave a GI50 (M14 melanoma) of 4.23 µM, a TGI (M14 melanoma) of 16.9 µM and a GI50 (MOLT-4 leukemia) of 0.892 µM. It also gave a TGI (MOLT-4 leukemia) of 2.31 µM, a GI50 (NCI-H226 lung) of 3.64 µM and a TGI (NCI-H226 lung) of 24.6 µM. The GI50 (NCI-H23 lung) was 2.49 µM, the TGI (NCI-H23 lung) was 14.9 µM and the GI50 (NCI-H460 NSCLC) was 2.19 µM. For the same compound, the TGI (NCI-H460 NSCLC) was 13.1 µM, the GI50 (RPMI-8226 leukemia) was 1.09 µM and the TGI (RPMI-8226 leukemia) was 2.86 µM. For the same compound, the GI50 (SF-268 CNS) was 6.38 µM, the TGI (SF-268 CNS) was 26.8 µM and the GI50 (SK-MEL-28 melanoma) was 2.39 µM. For the same compound, the TGI (SK-MEL-28 melanoma) was 27.8 µM, the GI50 (SK-OV-3 ovarian) was 1.57 µM and the TGI (SK-OV-3 ovarian) was 6.2 µM. The GI50 (SW-620 colon) was 5.21 µM and the TGI (SW-620 colon) was 18.9 µM.

— PubChem BioAssay (NCI)
